# How the values were obtained:
# Test in all cases: combination Emax (second highest fraction inhibited in the dose matrix, 72 h); higher = more inhibition; extreme values may be limits of the assay
# [1] = system: ATN-1 (T-Lymphoblastic Leukemia)
# Procedure, shortened: (§1)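 Cell lines in DMEM/F12 or RPMI with 10% FBS were plated in 1536-well plates, held 24 hours at 37°C, 5% CO2, then given two-drug dose matrices for 72 hours (DMSO typically 0.2%). Viability was read by CellTiter-Glo 2.0 luminescence and scaled as inhibition from 0 (vehicle wells) to 1 (blank wells). Combination Emax is the second-highest inhibition in the matrix; Bliss excess is observed combination effect minus expected EA + EB − EA·EB, EA and EB being single-agent effects.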
# DK-MG (Glioblastoma) = system: DK-MG (Glioblastoma)
# Procedure, shortened: as §1
# [2] = system: GRANTA-519 (B-Cell Non-Hodgkin's Lymphoma)
# Procedure, shortened: as §1
# [3] = system: HT-3 (Cervical Carcinoma)
# Procedure, shortened: as §1
# [4] = system: IGROV-1 (Ovarian Carcinoma)
# Procedure, shortened: as §1
# [5] = system: JURL-MK1 (Chronic Myelogenous Leukemia)
# Procedure, shortened: as §1
# [6] = system: NCI-H1975 (Lung Adenocarcinoma)
# Procedure, shortened: as §1
# [7] = system: NCI-H2170 (Squamous Cell Lung Carcinoma)
# Procedure, shortened: as §1
# [8] = system: OCI-M1 (Acute Myeloid Leukemia)
# Procedure, shortened: as §1
# [9] = system: SBC-5 (Small Cell Lung Carcinoma)
# Procedure, shortened: as §1
# [10] = system: SCC90 (Head and Neck Carcinoma)
# Procedure, shortened: as §1
# [11] = system: BC-1 (B-Cell Non-Hodgkin's Lymphoma)
# Procedure, shortened: as §1
# [12] = system: CAL-85-1 (Breast Carcinoma)
# Procedure, shortened: as §1
# [13] = system: KNS-62 (Squamous Cell Lung Carcinoma)
# Procedure, shortened: as §1
# MG-63 (Osteosarcoma) = system: MG-63 (Osteosarcoma)
# Procedure, shortened: as §1
# [14] = system: MRK-nu-1 (Breast Carcinoma)
# Procedure, shortened: as §1
# [15] = system: NCI-H1648 (Lung Adenocarcinoma)
# Procedure, shortened: as §1
# NCI-H2452 (Mesothelioma) = system: NCI-H2452 (Mesothelioma)
# Procedure, shortened: as §1
# [16] = system: RPMI-8402 (T-Lymphoblastic Leukemia)
# Procedure, shortened: as §1
SMILES,combination Emax [1],combination Emax (DK-MG (Glioblastoma)),combination Emax [2],combination Emax [3],combination Emax [4],combination Emax [5],combination Emax [6],combination Emax [7],combination Emax [8],combination Emax [9],combination Emax [10],combination Emax [11],combination Emax [12],combination Emax [13],combination Emax (MG-63 (Osteosarcoma)),combination Emax [14],combination Emax [15],combination Emax (NCI-H2452 (Mesothelioma)),combination Emax [16]
"CC(=O)c1c(C)c2cnc(Nc3ccc(N4CCNCC4)cn3)nc2n(C2CCCC2)c1=O [Palbociclib] + CN(CC[C@H](CSC1=CC=CC=C1)NC2=C(C=C(C=C2)S(=O)(=O)NC(=O)C3=CC=C(C=C3)N4CCC(CC4)[C@H](C5=CC=CC=C5C6=CC=C(C=C6)Cl)O)S(=O)(=O)C(F)(F)F)CCO [AZD4320] (first compound max 10 µM, 7x7, partner max 1 µM)",0.772,0.389,0.903,0.0805,0.793,1,0.471,0.8,0.994,0.251,0.862,,,,,,,,
"CN(C)CCCOc1ccc(-c2ccc3ncc4c(c3c2)n(C2CCOCC2)c(=O)n4C)cn1 [AZD0156] + C[C@@H]1COCCN1C2=NC(=NC(=C2)C3(CC3)[S@](=N)(=O)C)C4=C5C=CNC5=NC=C4 [AZD6738] (first compound max 1 µM, 7x7, partner max 10 µM)",1,0.242,0.82,0.609,0.724,0.998,0.407,0.799,0.982,0.813,0.358,0.936,0.446,0.485,0.706,0.648,0.676,0.559,0.983
"C[C@@H]1COCCN1c1cc(C2([S@](C)(=N)=O)CC2)nc(-c2ccnc3[nH]ccc23)n1 [AZD6738] + O=C(c1cc(Cc2n[nH]c(=O)c3ccccc23)ccc1F)N1CCN(C(=O)C2CC2)CC1 [Olaparib] (first compound max 10 µM, 7x7, partner max 10 µM)",1,0.316,0.754,0.697,0.704,0.996,0.354,0.71,0.982,0.789,0.48,0.939,,0.413,0.674,0.621,0.689,0.469,1
"CC1(C)CCC(CN2CCN(c3ccc(C(=O)NS(=O)(=O)c4ccc(NCC5CCOCC5)c([N+](=O)[O-])c4)c(Oc4cnc5[nH]ccc5c4)c3)CC2)=C(c2ccc(Cl)cc2)C1 [Venetoclax] + COc1cc(Nc2ncc3c(n2)-c2ccc(Cl)cc2C(c2c(F)cccc2OC)=NC3)ccc1C(=O)O [Alisertib] (first compound max 1 µM, 7x7, partner max 10 µM)",0.901,0.443,0.969,0.0652,0.789,0.964,0.469,0.666,0.815,0.615,0.687,0.943,0.438,0.283,0.669,0.628,0.58,0.573,0.718
"Cc1c2c(nn1C)CSCc1cc(n(C)n1)CSc1cc(c3ccccc3c1)OCCCc1c(C(=O)O)n(C)c3c-2c(Cl)ccc13 [AZD5991] + C1CN(CCC1(C(=O)N[C@@H](CCO)C2=CC=C(C=C2)Cl)N)C3=NC=NC4=C3C=CN4 [Capivasertib] (first compound max 1 µM, 7x7, partner max 3 µM)",0.989,0.86,0.0859,0.307,0.767,0.729,0.623,0.415,0.115,0.471,0.966,1,0.145,0.31,0.228,1,0.906,0.253,0.929
"CN(C)CCCOc1ccc(-c2ccc3ncc4c(c3c2)n(C2CCOCC2)c(=O)n4C)cn1 [AZD0156] + CCN(CCO)CCCOc1ccc2c(Nc3cc(CC(=O)Nc4cccc(F)c4)[nH]n3)ncnc2c1 [AZD2811] (first compound max 1 µM, 7x7, partner max 1 µM)",0.835,0.204,0.364,0.0658,0.539,0.554,0.3,0.656,0.222,0.313,0.231,0.752,0.104,0.141,0.285,0.631,0.214,0.221,0.889
"CC1(C)CCC(CN2CCN(c3ccc(C(=O)NS(=O)(=O)c4ccc(NCC5CCOCC5)c([N+](=O)[O-])c4)c(Oc4cnc5[nH]ccc5c4)c3)CC2)=C(c2ccc(Cl)cc2)C1 [Venetoclax] + C1CN(CCC1(C(=O)N[C@@H](CCO)C2=CC=C(C=C2)Cl)N)C3=NC=NC4=C3C=CN4 [Capivasertib] (first compound max 1 µM, 7x7, partner max 3 µM)",0.646,0.301,0.411,0.0784,0.738,0.291,0.562,0.375,0.157,0.188,0.813,0.523,0.161,0.364,0.317,0.288,0.45,0.272,0.498
"Cc1c2c(nn1C)CSCc1cc(n(C)n1)CSc1cc(c3ccccc3c1)OCCCc1c(C(=O)O)n(C)c3c-2c(Cl)ccc13 [AZD5991] + C=CCn1c(=O)c2cnc(Nc3ccc(N4CCN(C)CC4)cc3)nc2n1-c1cccc(C(C)(C)O)n1 [AZD1775] (first compound max 1 µM, partner max 1 µM)",1,0.821,0.863,0.631,0.88,0.999,0.677,0.749,0.921,0.694,0.952,1,0.43,0.223,0.395,1,0.796,0.623,1
"CC(=O)Nc1cccc(-n2c(=O)n(C3CC3)c(=O)c3c(Nc4ccc(I)cc4F)n(C)c(=O)c(C)c32)c1 [Trametinib] + Cc1nc(-c2cn3c(n2)-c2ccc(-c4cnn(C(C)(C)C(N)=O)c4)cc2OCC3)n(C(C)C)n1 [Taselisib] (first compound max 1 µM, 7x7, partner max 10 µM)",0.74,0.969,0.189,0.673,0.966,1,0.96,0.919,1,0.784,0.997,0.546,0.975,0.827,0.674,0.814,1,0.617,0.777
"Cc1c2c(nn1C)CSCc1cc(n(C)n1)CSc1cc(c3ccccc3c1)OCCCc1c(C(=O)O)n(C)c3c-2c(Cl)ccc13 [AZD5991] + CN(C)CCCOc1ccc(-c2ccc3ncc4c(c3c2)n(C2CCOCC2)c(=O)n4C)cn1 [AZD0156] (first compound max 1 µM, 7x7, partner max 1 µM)",0.929,0.754,0.209,0.479,0.606,0.734,0.599,0.317,0.203,0.497,0.904,1,0.206,0.174,0.251,1,0.701,0.372,0.795
"C=CCn1c(=O)c2cnc(Nc3ccc(N4CCN(C)CC4)cc3)nc2n1-c1cccc(C(C)(C)O)n1 [AZD1775] + C[C@@H]1COCCN1C2=NC(=NC(=C2)C3(CC3)[S@](=N)(=O)C)C4=C5C=CNC5=NC=C4 [AZD6738] (first compound max 1 µM, partner max 10 µM)",1,0.42,0.826,0.832,0.827,1,0.477,,0.969,0.929,0.927,1,0.669,0.565,0.854,0.802,0.833,0.747,1
"COc1nnc2ccc(N3CCC(c4ccc(OCCN5CCN(C)C(=O)[C@H]5C)cc4)CC3)nn12 [AZD5153] + CN(CC[C@H](CSC1=CC=CC=C1)NC2=C(C=C(C=C2)S(=O)(=O)NC(=O)C3=CC=C(C=C3)N4CCC(CC4)[C@H](C5=CC=CC=C5C6=CC=C(C=C6)Cl)O)S(=O)(=O)C(F)(F)F)CCO [AZD4320] (first compound max 1 µM, 7x7, partner max 1 µM)",0.718,0.614,0.986,0.3,0.608,0.994,0.643,0.838,1,0.534,0.588,,,,,,,,
"Cc1c2c(nn1C)CSCc1cc(n(C)n1)CSc1cc(c3ccccc3c1)OCCCc1c(C(=O)O)n(C)c3c-2c(Cl)ccc13 [AZD5991] + CC1(C)CCC(CN2CCN(c3ccc(C(=O)NS(=O)(=O)c4ccc(NCC5CCOCC5)c([N+](=O)[O-])c4)c(Oc4cnc5[nH]ccc5c4)c3)CC2)=C(c2ccc(Cl)cc2)C1 [Venetoclax] (first compound max 1 µM, 7x7, partner max 1 µM)",0.968,0.613,0.472,0.597,0.469,0.695,0.378,0.237,0.175,0.231,0.934,1,0.122,,0.199,1,0.748,0.305,0.932

# — the supplement of paper PMC11061612
